Like-named read-outs stand apart in the source and are kept apart here.

Data set [1] in a line: Turbidity of surfactant added to standard maltodextrin/lipid emulsion at room temperature (Example 1). The data set is classed as physicochemical. The settings on record: surfactant 7% w/w in emulsion of 2% C* Dry MD 01958 maltodextrin and 1% S-75 lipid.
The conditions of data set [2]: approximate average of manufacturer and literature values; cited from earlier work.
The nature of data set [3]: Clarity of surfactant/lipid compositions with or without maltodextrin (Example 2). In kind it is physicochemical. The conditions noted are these: surfactant at % given in row, S-75 lipid, low temperature process; for Clarity with maltodextrin (2%): 2% maltodextrin; for Clarity without maltodextrin: no maltodextrin.
A short description of data set [4]: HLB values of surfactants (manufacturer/literature or equation). The settings on record: from HLB=20[1-(S/A)], S 45.5, A 276. In kind it is physicochemical.
Data set [5] can be described thus: Particle size analysis (FIG. 3). In kind it is physicochemical. The conditions noted are these: Brij35P 7.0% w/w, S-75 1% w/w, maltodextrin 2% w/w; 25:2 dilution.

Take Octoxynol-40: the “Turbidity (FNU)” value in data set [1] is over 150 FNU. In addition, in data set [2], the HLB was 17.9.
Consider Nonoxynol-40, for which, in data set [1], the “Turbidity (FNU)” value is over 150 FNU. Further, in data set [2], the HLB was 17.8.
Octoxynol-16: the “Turbidity (FNU)” value in data set [1] worked out at 7.55 FNU.
In the case of Polysorbate-20 [Polysorbate 20], in data set [3], the “Clarity with maltodextrin (2%)” value was found to be 59.5 FNU and the Clarity without maltodextrin is listed as 79.5 FNU. For the same substance, the HLB in data set [4] is 16.7.
Laureth-23 [Brij 35P]: in data set [5], the polydispersity is 0.625 and the principal/dominant particle size came to 8.68 nm. In data set [3], the “Clarity with maltodextrin (2%)” value is listed as 128.1 FNU and the Clarity without maltodextrin is listed as 184 FNU.
On to Octoxynol-9, for which, in data set [1], the “Turbidity (FNU)” value is given as 7.75 FNU.
For the substance Octoxynol-12, the “Turbidity (FNU)” value in data set [1] was determined as 4.32 FNU. In data set [2], the HLB was 14.5.
Regarding Octoxynol-5, the “Turbidity (FNU)” value in data set [1] is reported as over 150 FNU. Moreover, the HLB in data set [2] is 10.4.
Regarding Octoxynol-30, in data set [1], the “Turbidity (FNU)” value is over 150 FNU. Besides, in data set [2], the HLB is reported as 17.1.
Take Nonoxynol-9: the “Turbidity (FNU)” value in data set [1] is given as 8.87 FNU. Also, in data set [2], the HLB is 12.9.
Nonoxynol-10: the “Turbidity (FNU)” value in data set [1] was 8.29 FNU. In data set [2], the HLB is reported as 13.6.
